How the values were obtained:
Type in all cases: cell-based
F508del-CFTR [1] = target: T1, F508del-CFTR (Homo sapiens, UniProt P13569, DEL508-508); test: HS-YFP assay on F508del-CFTR CFBE41o- cells, acute stimulation; set-up: expressed in transfected cells; settings: acute stimulation in the presence of forskolin, Figure 4A
Experimental: The preliminary activity of these three hits was further evaluated in secondary screening assays. Although featuring the same common scaffold, in order to possibly discriminate the most interesting hit for further structural investigations, the compounds belonging to the family of tetrahydro-γ-carbolines were tested on more relevant cell models. First, the hits were tested on an immortalized bronchial epithelial cell line (CFBE41o-) stably expressing F508del-CFTR and HS-YFP. […]
(§1) Prior assay, cells were washed with phosphate-buffered saline (PBS) containing (in mM) 137 NaCl, 2.7 KCl, 8.1 Na2HPO4, 1.5 KH2PO4, 1 CaCl2, and 0.5 MgCl2. […] Cells were then transferred to microplate readers (FluoStar Optima; BMG Labtech, Offenburg, Germany) for CFTR activity determination. The plate readers were equipped with high-quality excitation (HQ500/20X: 500 ± 10 nm) and emission (HQ535/30M: 535 ± 15 nm) filters for YFP (Chroma Technology). The assay consisted of a continuous 14 s fluorescence reading, 2 s before and 12 s after injection of 165 μL of an iodide-containing solution (PBS with Cl^– replaced by I^–; final I^– concentration 100 mM). Data were normalized to the initial background-subtracted fluorescence. […]

G551D-CFTR = target: T2, G551D-CFTR (Homo sapiens, UniProt P13569, G551D); test: HS-YFP-based assay on G551D-CFTR FRT cells
T2 construct: expressed in transfected cells
Experimental: The primary hits were confirmed by testing them at different concentrations, in order to extrapolate the dose–response relationship. First, we focused on the F508del mutant. The compounds were tested in the low micromolar range, in the presence of forskolin (10 μM), on F508del-CFTR FRT cells following rescue of the trafficking defect by low-temperature incubation, as done for the primary screening. The most interesting hits were subsequently tested for their ability to overcome the more severe gating defect of pure class III mutant using FRT cells stably expressing G551D-CFTR (Figure 3B).
A small set of selected potentiators with good efficacy and potency on F508del-CFTR FRT cells (Figure 6A) was also tested at three concentrations on G551D-CFTR FRT cells (Figure 6B).
FRT cells stably expressing mutant F508del-CFTR or G551D-CFTR and the halide-sensitive yellow fluorescent protein (HS-YFP) YFP-H148Q/I152L and CFBE41o-cells stably expressing F508del-CFTR and HS-YFP were generated as previously described.[21],[57] FRT cells were cultured using the Coon’s modification of Ham’s F12 medium, while CFBE41o-cells were cultured in the modified Eagle’s medium. Media were supplemented with 10% fetal calf serum, 2 mM L-glutamine, 100 U/mL of penicillin, and […] of streptomycin. […]
as §1

F508del-CFTR [2] = target: T1, F508del-CFTR; test: TEER/PD measurements on primary HBE cells from an F508del/F508del CF patient, 24 h co-incubation with corrector; set-up: primary HBE cells from an F508del/F508del CF patient; endogenous in cells; host or cells: primary human bronchial epithelial cells, F508del/F508del CF patient; settings: 39 0.5 μM with ARN23765 10 nM
Experimental: A similar combination study was conducted on primary HBE cells from an F508del/F508del CF patient. The effect of the compound was assessed with the transepithelial electrical resistance and potential difference (TEER/PD) technique.[41] Epithelia were treated for 24 h with a vehicle, a corrector ARN23765 alone (10 nM), or ARN23765 (10 nM) plus the potentiator 39 (0.5 μM). TEER and PD values were taken at resting, after the addition of apical amiloride, after maximal stimulation of F508del-CFTR activity (with forskolin plus genistein), and after blocking with PPQ-102. For each epithelium, we measured the difference in the short-circuit current, Ieq (calculated from the TEER and PD values), before and after blocking with PPQ-102 (ΔIeq). The results obtained on primary epithelia confirmed that the rescue of CFTR activity by the corrector ARN23765 was not affected by coincubation with the novel potentiator 39 (Figure 7B).
Primary bronchial epithelial cells were cultured as previously described.[58] In brief, epithelial cells were cultured in a serum-free medium (LHC9 mixed with RPMI 1640, 1:1) supplemented with hormones and supplements to support cell number amplification. […] Differentiation of cells to form a tight epithelium was monitored by measuring transepithelial electrical resistance and potential difference with an epithelial voltohmmeter (EVOM1, World Precision Instruments). […]

T2 sequence (P13569 whole entry G551D): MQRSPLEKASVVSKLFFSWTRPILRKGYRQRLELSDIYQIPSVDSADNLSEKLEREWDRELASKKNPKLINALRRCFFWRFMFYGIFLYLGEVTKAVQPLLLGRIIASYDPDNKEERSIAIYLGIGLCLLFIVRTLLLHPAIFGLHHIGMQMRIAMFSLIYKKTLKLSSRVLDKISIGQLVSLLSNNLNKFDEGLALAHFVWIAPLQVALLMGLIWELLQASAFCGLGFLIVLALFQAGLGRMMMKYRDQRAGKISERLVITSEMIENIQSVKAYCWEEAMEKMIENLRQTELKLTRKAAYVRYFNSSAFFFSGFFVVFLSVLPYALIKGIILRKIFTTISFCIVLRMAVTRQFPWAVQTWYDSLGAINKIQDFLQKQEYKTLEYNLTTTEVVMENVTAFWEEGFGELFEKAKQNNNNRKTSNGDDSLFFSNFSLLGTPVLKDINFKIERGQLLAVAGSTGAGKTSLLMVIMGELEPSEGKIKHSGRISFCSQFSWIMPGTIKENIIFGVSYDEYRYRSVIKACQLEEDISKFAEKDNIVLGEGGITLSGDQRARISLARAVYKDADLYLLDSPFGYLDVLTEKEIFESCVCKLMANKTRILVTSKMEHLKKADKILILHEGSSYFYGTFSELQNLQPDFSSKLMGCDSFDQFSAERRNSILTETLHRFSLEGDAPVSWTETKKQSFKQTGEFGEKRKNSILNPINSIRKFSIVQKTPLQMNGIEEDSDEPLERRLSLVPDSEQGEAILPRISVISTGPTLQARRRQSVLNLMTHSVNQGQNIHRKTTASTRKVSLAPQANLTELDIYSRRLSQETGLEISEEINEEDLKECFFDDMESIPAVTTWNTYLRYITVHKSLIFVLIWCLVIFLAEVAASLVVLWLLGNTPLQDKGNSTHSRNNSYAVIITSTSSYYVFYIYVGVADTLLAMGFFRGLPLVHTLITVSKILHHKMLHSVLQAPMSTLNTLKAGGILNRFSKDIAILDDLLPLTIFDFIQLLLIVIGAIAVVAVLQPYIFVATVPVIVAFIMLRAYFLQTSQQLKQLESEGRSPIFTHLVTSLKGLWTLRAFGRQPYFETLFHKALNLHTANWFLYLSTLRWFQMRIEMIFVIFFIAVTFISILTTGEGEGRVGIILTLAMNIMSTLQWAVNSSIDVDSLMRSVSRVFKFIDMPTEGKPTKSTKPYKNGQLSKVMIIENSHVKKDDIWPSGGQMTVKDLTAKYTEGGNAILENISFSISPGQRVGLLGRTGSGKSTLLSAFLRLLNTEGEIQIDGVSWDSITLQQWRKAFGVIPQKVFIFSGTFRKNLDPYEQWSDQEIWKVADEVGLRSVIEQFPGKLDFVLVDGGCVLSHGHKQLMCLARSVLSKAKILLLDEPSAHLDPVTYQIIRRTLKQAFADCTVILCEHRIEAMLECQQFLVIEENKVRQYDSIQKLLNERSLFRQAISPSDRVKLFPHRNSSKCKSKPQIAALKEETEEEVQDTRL
T1 sequence (P13569 with tags, fused parts or gaps DEL508-508): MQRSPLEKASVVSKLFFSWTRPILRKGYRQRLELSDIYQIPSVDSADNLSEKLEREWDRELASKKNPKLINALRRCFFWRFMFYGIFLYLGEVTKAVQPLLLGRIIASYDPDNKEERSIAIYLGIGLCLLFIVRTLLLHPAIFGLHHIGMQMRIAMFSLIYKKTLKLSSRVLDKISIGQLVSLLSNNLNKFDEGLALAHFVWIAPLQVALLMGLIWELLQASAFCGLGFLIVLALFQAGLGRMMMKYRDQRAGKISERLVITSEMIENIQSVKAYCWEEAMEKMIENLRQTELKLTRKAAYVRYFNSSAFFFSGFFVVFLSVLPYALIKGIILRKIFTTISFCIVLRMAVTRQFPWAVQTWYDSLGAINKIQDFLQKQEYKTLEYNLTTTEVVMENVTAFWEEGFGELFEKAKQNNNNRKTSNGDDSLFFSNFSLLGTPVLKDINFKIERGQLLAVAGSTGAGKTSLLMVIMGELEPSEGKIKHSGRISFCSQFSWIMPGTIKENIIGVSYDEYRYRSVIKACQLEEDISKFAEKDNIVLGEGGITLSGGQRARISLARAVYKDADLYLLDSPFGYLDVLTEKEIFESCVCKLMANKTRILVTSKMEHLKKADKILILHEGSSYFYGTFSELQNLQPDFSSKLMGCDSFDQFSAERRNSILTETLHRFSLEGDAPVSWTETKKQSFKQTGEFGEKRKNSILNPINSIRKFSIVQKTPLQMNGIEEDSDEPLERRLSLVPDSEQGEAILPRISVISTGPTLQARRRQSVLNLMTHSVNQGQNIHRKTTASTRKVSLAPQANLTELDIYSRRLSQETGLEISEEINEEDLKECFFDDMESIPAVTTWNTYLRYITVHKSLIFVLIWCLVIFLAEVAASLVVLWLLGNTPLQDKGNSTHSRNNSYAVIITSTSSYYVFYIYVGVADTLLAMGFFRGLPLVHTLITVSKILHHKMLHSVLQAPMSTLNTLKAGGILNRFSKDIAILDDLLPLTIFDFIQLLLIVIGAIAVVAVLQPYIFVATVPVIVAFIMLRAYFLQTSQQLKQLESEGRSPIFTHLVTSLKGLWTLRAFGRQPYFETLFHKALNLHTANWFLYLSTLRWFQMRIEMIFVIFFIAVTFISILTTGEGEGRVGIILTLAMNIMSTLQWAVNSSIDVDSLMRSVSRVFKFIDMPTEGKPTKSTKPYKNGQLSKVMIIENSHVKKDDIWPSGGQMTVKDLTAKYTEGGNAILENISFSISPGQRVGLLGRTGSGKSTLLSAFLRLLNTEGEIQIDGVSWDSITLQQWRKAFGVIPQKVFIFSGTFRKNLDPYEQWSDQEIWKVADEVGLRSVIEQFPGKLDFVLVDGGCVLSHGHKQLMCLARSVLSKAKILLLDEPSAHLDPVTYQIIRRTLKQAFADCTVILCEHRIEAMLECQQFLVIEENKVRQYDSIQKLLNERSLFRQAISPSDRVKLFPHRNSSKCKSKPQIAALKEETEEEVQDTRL

COc1ccc2[nH]c3c(c2c1)CN(C(=O)c1cc(C(F)(F)F)[nH]n1)CC3 [Compound 3, (8-Methoxy-1,3,4,5-tetrahydropyrido[4,3-b]indol-2-yl)-[5-(trifluoromethyl)-1H-pyrazol-3-yl]methanone]
dose-dependent activation of mutant CFTR (F508del-CFTR [1]): the most effective

Cc1ccc(F)c2[nH]c3c(c12)CN(C(=O)c1cc(C(F)(F)F)[nH]n1)[C@H](C)C3 [Compound 39, (R)-(6-Fluoro-3,9-dimethyl-1,3,4,5-tetrahydro-2H-pyrido[4,3-b]indol-2-yl)-(5-(trifluoromethyl)-1H-pyrazol-3-yl)methanone]
activity compared to VX-770 on G551D-CFTR FRT cells (G551D-CFTR; at 0.56 μM): decrease in activity | activity compared to VX-770 on G551D-CFTR FRT cells (G551D-CFTR; at the highest concentrations (20–3.3 μM)): comparable pattern of activity | potency ranking on G551D-CFTR FRT cells (G551D-CFTR; tested at three concentrations, Figure 6B): the most potent one | effect on rescue of CFTR activity by the corrector ARN23765 (ΔIeq) (F508del-CFTR [2]): not affected

Reference: PMC8011931, “Identification, Structure–Activity Relationship, and Biological Characterization of 2,3,4,5-Tetrahydro-1H-pyrido[4,3-b]indoles as a Novel Class of CFTR Potentiators” (Journal of Medicinal Chemistry, 2020)
